This note sets out measurements from US20230027198A1 (The Rockefeller University, priority 2019, published 2023).

In assay [1] the target is T1, ENL YEATS domain (6×HIS ENL YEATS Domain) binding to H3K9cr peptide (Homo sapiens, UniProt Q03111).
T1 construct: aa1-150; EpiCypher, 15-0069; purchased EpiCypher 15-0069
T1 sequence (Q03111 1-150): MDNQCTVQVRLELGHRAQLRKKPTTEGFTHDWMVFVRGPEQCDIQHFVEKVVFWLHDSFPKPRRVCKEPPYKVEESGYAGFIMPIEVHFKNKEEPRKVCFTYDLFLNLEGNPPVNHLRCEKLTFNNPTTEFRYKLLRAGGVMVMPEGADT
Briefly: TR-FRET ENL Screening Assay, FRET Assay Protocol 1. Particulars: H3K9cr peptide (aa1-20). On the procedure:
Compounds of the invention were dissolved in DMSO at a concentration of 3 mM with subsequent dilutions in assay buffer (50 mM HEPES PH7.0, 150 mM NaCl, 0.05% BSA, 0.2% Pluronic F-127) such that the assay contained 1% DMSO. […] Low control (LC) wells received 5 uL of assay buffer instead of ENL protein. […] Compound concentration response curves were performed in duplicate over the concentration range of 0.15 nM-30 uM. The response at each compound concentration minus the LC value was converted to percent inhibition of the vehicle control group response (HC-LC). The relationship between the % inhibition and the compound concentration was analyzed using a four parameter logistic equation to estimate lower and upper asymptotes, the compound concentration producing 50% inhibition (IC50 value) and the slope at the mid-point location.

In another assay the test system is MV4-11 cells. Put plainly: Cell viability assay (CellTiter-Glo), 12 days. It counts as cell-based. The settings on record: Homo sapiens, readouts on days 4, 8 and 12, day not given. On the procedure: Cell-based assays were used to assess the ability of test compounds to reduce cell viability in both MV4:11 (MLL-AF4 MLL) and K562 cells, which were cultured in Iscove's Modified Dulbecco's medium (Gibco, 12440061) containing […]. The assays were conducted over 12 days and the cells being split on days 4 and 8. Compound concentration response curves were performed in duplicate over the concentration range of 0.15 nM-30 uM. On day 0, the compounds or vehicle were plated in a 300 nL directly into 96 well cell culture plates (Corning, 3599) with 5000 cells/well in a volume of 100 uL. Blank wells received cell culture medium. Plates were incubated for 4 days at 37° C. with 5% CO2. On days 4 and day 8 the cells were split and incubated for a further 4 days whilst an aliquot of cells were taken for the CTG readout. For the cell splitting, 270 nL of compounds or DMSO was added to a new 96 well cell culture plate to which 90 uL of medium plus 10 uL of cells from the original assay plate (after mixing) or 100 uL of medium (Blank wells) was added. This was repeated on day 8.
Cell viability was assessed using the CellTiter-Glo® homogeneous luminescent assay kit (Promega, G9243), according to the manufacturer's instructions. This quantifies ATP, which indicates the presence of metabolically active cells. On days 4, 8 and 12, 20 ul of the remaining cell suspension was aspirated into 384-well plate (Corning 3570) to which an equal volume CellTiter-Glo reagent was. Plates were incubated for 10 minute incubation at RT prior to recording the luminescence signal using EnVision plate reader (PE, 2104). The resulting data were analyzed as follows:
Inhibition (%)=100%×(Lumvehicie−Lumsample)/(Lumvehicle−Lumblank)
where vehicle are cells treated with 0.3% DMSO, Blank is culture medium. IC50 determinations were calculated by fitting the curve using XLfit (v5.3.1.3): Y=Bottom+(Top−Bottom)/(1+10^((Log IC50−X)*HillSlope)).
Background: In ATP-based viability assays light output follows the ATP content of the culture.

Broadly, the IC50 is the concentration that inhibits the measured activity by half.

`Cc1noc2cc(C(=O)Nc3cc4[nH]c(CN5CCC[C@@H]5C)cc4cn3)ccc12` [Example 1, (S)-3-methyl-N-(2-((2-methylpyrrolidin-1-yl)methyl)-1H-pyrrolo[3,2-c]pyridin-6-yl)benzo[d]isoxazole-6-carboxamide]: the IC50 was found to be 143 nM in assay [1] and 0.057 µM in the assay with MV4-11 cells.
The like results for `Cc1nn(C)c2cc(C(=O)Nc3cc4[nH]c(CN5CCC[C@@H]5C)cc4cn3)ccc12` [Example 5] were, in that order, 125 nM and 0.022 µM.
The like results for `Cc1nn(C)c2ccc(C(=O)Nc3cc4[nH]c(CN5CCC[C@@H]5C)cc4cn3)cc12` [Example 6] were, in that order, 133 nM and 0.061 µM.
The like results for `C[C@H]1CCCN1Cc1cc2cnc(NC(=O)c3ccc4cnn(C)c4c3)cc2[nH]1` [Example 7] were, in that order, 298 nM and 0.173 µM.
In the case of `C[C@H]1CCCN1Cc1cc2cnc(NC(=O)c3ccc(-c4cnn(C)c4)cc3)cc2[nH]1` [Example 21, 4-(1-methylpyrazol-4-yl)-N-(2-[[(2S)-2-methylpyrrolidin-1-yl]methyl]-1H-pyrrolo[3,2-c]pyridin-6-yl)benzamide], the IC50 in assay [1] amounted to 250 nM; in the assay on MV4-11 cells it was 0.301 µM.
Taken in the same sequence, the figures for `Cc1ccc2cc(C(=O)Nc3cc4[nH]c(CN5CCC[C@@H]5C)cc4cn3)ccc2n1` [Example 22] were 139 nM and 0.127 µM.
In the case of `C[C@H]1CCCN1Cc1cc2cnc(NC(=O)c3ccc4cc(=O)[nH]cc4c3)cc2[nH]1` [Example 23, N-(2-[[(2S)-2-methylpyrrolidin-1-yl]methyl]-1H-pyrrolo[3,2-c]pyridin-6-yl)-3-oxo-2H-isoquinoline-7-carboxamide], the IC50 turned out to be 208 nM in assay [1] and 0.076 µM with MV4-11 cells.
For `C[C@H]1CCCN1Cc1cc2cnc(NC(=O)c3ccc4oc(=O)[nH]c4c3)cc2[nH]1` [Example 24, N-(2-[[(2S)-2-methylpyrrolidin-1-yl]methyl]-1H-pyrrolo[3,2-c]pyridin-6-yl)-2-oxo-3H-1,3-benzoxazole-5-carboxamide], the IC50 in assay [1] was found to be 1090 nM; with MV4-11 cells it was 1.46 µM.
Turning to `C[C@H]1CCCN1Cc1cc2cnc(NC(=O)c3ccc(-c4ccn(C)n4)cc3F)cc2[nH]1` [Example 32], the IC50 in assay [1] came out at 1400 nM; in the assay on MV4-11 cells, 0.455 µM.
The like results for `C[C@H]1CCCN1Cc1cc2cnc(NC(=O)c3ccc(-c4cnn(C)c4)cc3F)cc2[nH]1` [Example 34] were, in that order, 227 nM and 0.122 µM.
Taken in the same sequence, the figures for `C[C@H]1CCCN1Cc1cc2cnc(NC(=O)c3ccc(-c4cn[nH]c4)cc3)cc2[nH]1` [Example 42, N-(2-[[(2S)-2-methylpyrrolidin-1-yl]methyl]-1H-pyrrolo[3,2-c]pyridin-6-yl)-4-(1H-pyrazol-4-yl)benzamide] were 161 nM and 0.109 µM.
The like results for `Cn1ncc2cc(C(=O)Nc3cc4[nH]c(CN5CC6(COC6)C5)cc4cn3)ccc21` [Example 46] were, in that order, 306 nM and 1.22 µM.
Consider `Cc1n[nH]c2ccc(C(=O)Nc3cc4[nH]c(CN5CCC[C@@H]5C)cc4cn3)cc12` [Example 47], for which the values for the IC50 (in assay [1]; in the assay on MV4-11 cells) were 144 nM and 0.128 µM, respectively.
For the compound `C[C@H]1CCCN1Cc1cc2cnc(NC(=O)c3ccc4[nH]nc(C5CC5)c4c3)cc2[nH]1` [Example 48], the concentration for half-maximal inhibition (IC50) worked out at 140 nM in assay [1] and 0.057 µM in the assay with MV4-11 cells.
On to `C[C@H]1CCCN1Cc1cc2cnc(NC(=O)c3ccc(-c4cnn(C(F)F)c4)cc3)cc2[nH]1` [Example 50], for which the IC50 in assay [1] came to 158 nM; with MV4-11 cells, 0.1 µM.
The like results for `COCCn1cc(-c2ccc(C(=O)Nc3cc4[nH]c(CN5CCC[C@@H]5C)cc4cn3)cc2)cn1` [Example 51] were, in that order, 187 nM and 0.077 µM.
Taken in the same sequence, the figures for `C[C@H]1CCCN1Cc1cc2cnc(NC(=O)c3ccc(-c4cnn(CC#N)c4)cc3)cc2[nH]1` [Example 52] were 154 nM and 0.184 µM.
The like results for `C[C@H]1CCCN1Cc1cc2cnc(NC(=O)c3ccc4c(C(F)F)nn(C)c4c3)cc2[nH]1` [Example 55] were, in that order, 116 nM and 0.058 µM.
On to `C[C@H]1CCCN1Cc1cc2cnc(NC(=O)c3ccc4c(C5CC5)nn(C)c4c3)cc2[nH]1` [Example 56], for which the IC50 was determined as 78 nM in assay [1] and 0.044 µM in the assay with MV4-11 cells.
Taken in the same sequence, the figures for `Cc1cc2cc(C(=O)Nc3cc4[nH]c(CN5CCC[C@@H]5C)cc4cn3)ccc2nn1` [Example 57] were 272 nM and 0.314 µM.
As for `C[C@H]1CCCN1Cc1cc2cnc(NC(=O)c3ccc4c(N)nn(C)c4c3)cc2[nH]1` [Example 60], the results for the IC50 (in assay [1]; with MV4-11 cells) were 330 nM and 0.182 µM, respectively.
The like results for `C[C@H]1CCCN1Cc1cc2cnc(NC(=O)c3ccc4c(CO)nccc4c3)cc2[nH]1` [Example 66] were, in that order, 85 nM and 0.094 µM.
`C[C@H]1CCCN1Cc1cc2cnc(NC(=O)c3ccc(CN)cc3)cc2[nH]1` [Example 81] displayed an IC50 in assay [1] of 1200 nM.
For the compound `C[C@H]1CCCN1Cc1cc2cnc(NC(=O)c3ccc4c(N)n[nH]c4c3)cc2[nH]1` [Example 83], the IC50 in assay [1] came out at 168 nM.
The same measure, in the same setting: the value for `C[C@H]1CCCN1Cc1cc2cnc(NC(=O)c3ccc4c(N)nn(C5CC5)c4c3)cc2[nH]1` [Example 84] was 177 nM.
`CC(=O)Nc1nn(C)c2cc(C(=O)Nc3cc4[nH]c(CN5CCC[C@@H]5C)cc4cn3)ccc12` [Example 87, 3-acetamido-1-methyl-N-(2-[[(2S)-2-methylpyrrolidin-1-yl]methyl]-1H-pyrrolo[3,2-c]pyridin-6-yl)indazole-6-carboxamide] had a concentration for half-maximal inhibition (IC50) in assay [1] of 330 nM.
`Cc1n[nH]cc1-c1ccc(C(=O)Nc2cc3[nH]c(CN4CCC[C@@H]4C)cc3cn2)cc1` [Example 89] gave an IC50 in assay [1] of 499 nM.
Compound `C[C@H]1CCCN1Cc1cc2cnc(NC(=O)c3ccc4c(c3)n(C)c(=O)n4C)cc2[nH]1` [Example 90] had an IC50 in assay [1] of 126 nM.
The same measure, in the same setting: the same measure for `C[C@H]1CCCN1Cc1cc2cnc(NC(=O)c3ccc(-n4cnnc4)cc3)cc2[nH]1` [Example 91]: 707 nM; for `Cc1nn(C2COC2)c2ccc(C(=O)Nc3cc4[nH]c(CN5CCC[C@@H]5C)cc4cn3)cc12` [Example 100]: 214 nM.
In the case of `Cc1nn(C2CS(=O)(=O)C2)c2ccc(C(=O)Nc3cc4[nH]c(CN5CCC[C@@H]5C)cc4cn3)cc12` [Example 101], the IC50 in assay [1] is 126 nM.
Regarding `Cc1nn(C(F)F)c2ccc(C(=O)Nc3cc4[nH]c(CN5CCC[C@@H]5C)cc4cn3)cc12` [Example 102], the IC50 in assay [1] stood at 276 nM.
Consider `Cc1n[nH]c2cc(F)c(C(=O)Nc3cnc4cc(CN5CCC[C@@H]5C)[nH]c4c3)cc12` [Example 105, 6-fluoro-3-methyl-N-(2-[[(2S)-2-methylpyrrolidin-1-yl]methyl]-1H-pyrrolo[3,2-b]pyridin-6-yl)-1H-indazole-5-carboxamide], for which, in assay [1], the IC50 was 270 nM.
Still for that read-out and setting: the value for `Cc1n[nH]c2ccc(C(=O)Nc3cc4[nH]c(CN5CCC[C@@H]5C)c(F)c4cn3)cc12` [Example 107, N-(3-fluoro-2-[[(2S)-2-methylpyrrolidin-1-yl]methyl]-1H-pyrrolo[3,2-c]pyridin-6-yl)-3-methyl-1H-indazole-5-carboxamide] was 94 nM; that for `Cc1n[nH]c2ccc(C(=O)Nc3cc4[nH]c(CN5CC6(C5)CC(F)(F)C6)cc4cn3)cc12` [Example 109] was 152 nM; that for `C[C@H]1CCCN1Cc1cc2nnc(NC(=O)c3ccc4c(cnn4C)c3)cc2[nH]1` [compound 19] was 200 nM.
On the same count and under the same terms, the same measure for `COCCCCn1ncc2cc(C(=O)Nc3cc4[nH]c(CN5CCC[C@@H]5C)cc4cn3)ccc21` [compound 28]: 416 nM.
On the same count and under the same terms, the value for `CC(c1ccc(C(=O)Nc2cc3[nH]c(CN4CCC[C@@H]4C)cc3cn2)cc1)c1cccnc1` (stereo partly shown) [compound 30] was 763 nM.
Consider `Cc1n[nH]c2ccc(C(=O)Nc3cnc4cc(CN5CCC[C@@H]5C)[nH]c4c3)c(F)c12` [compound 106], for which the IC50 in assay [1] amounted to 170 nM.
